According to patent US11786609B2, “Lipid compound as well as lipid vector, nucleic acid lipid nanoparticle composition, and pharmaceutical preparation comprising the same” (PURECODON (HONG KONG) BIOPHARMA LIMITED, priority 2021, dated 2023):

How the values were obtained:
[1] = Particle size, PDI and encapsulation efficiency of LNP@mRNA; format: physicochemical; conditions: Example 26 LNP@mRNA, summary of Table 1
[2] = as above; format: physicochemical; conditions: Example 26: LNP@mRNA of compound, cholesterol, DOPE, PEG-DMG 35:46.5:16:2.5; luciferase mRNA
Experimental: (§1) Compounds 1, 2, 17, 27 or 33 was each dissolved in the first solution with cholesterol, DOPE and PEG-DMG in a molar ratio of 35:46.5:16:2.5, and luciferase mRNA was dissolved in the second solution. […] Microfluidics was utilized to quickly mix the two phases, and dialysis or tangential flow was utilized to replace the buffer environment with PBS (pH 7.4) and thus remove ethanol, so as to prepare and afford five kinds of LNP@mRNAs, respectively.
Microfluidics was utilized to quickly mix the two phases, and dialysis or tangential flow was utilized to replace the buffer environment with PBS (pH 7.4) and thus remove ethanol, so as to prepare and afford LNP@mRNA.
The particle size, PDI and encapsulation efficiency of each of the above-mentioned LNP@mRNAs were determined, and the results were successively shown in Table 3.

mice [3] = experiment: Organ distribution of mRNA expression in mice after intravenous (tail vein) injection of LNP@mRNA; format: in vivo; conditions: 6 hours after intravenous (tail vein) injection, anatomical image
Experimental: as §1
(§2) The prepared LNP@mRNAs were each injected into mice via tail vein or muscle, and the fluorescence intensities and organ distribution in mice were determined 6 hours later.

mice [4] = experiment: Fluorescence intensity in mice after intramuscular injection of LNP@mRNA (luciferase mRNA); format: in vivo; conditions: for maximum fluorescence intensity: intramuscular injection of LNP@mRNA (compound and other three lipids), FIG. 7
Experimental: as §1, §2
The prepared mRNA@LNPs were each injected into mice via intramuscular injection, and the fluorescence intensities and organ distribution in mice were determined 6 hours later.

SMILES	encapsulation efficiency (in words) [1]	particle size (in words) [1]	Encapsulation efficiency [2] [%]	PDI [2]	Particle size [2] [nm]	mRNA expression in liver (mice [3])	mRNA expression in spleen (mice [3])	maximum fluorescence intensity (mice [4])	expression relative to LNP@mRNA prepared by Compound 27 (mice [4]; intramuscular injection, ratio of maximum fluorescence intensities) [times]
CCCCCCCCC(CCCCCC)C(=O)OCCN(CCCN(C)CCCN(CCOC(=O)C(CCCCCC)CCCCCCCC)CCOC(=O)C(CCCCCC)CCCCCCCC)CCOC(=O)C(CCCCCC)CCCCCCCC (centres unmarked) [Compound 1]	relatively high encapsulation efficiency	relatively small particle size	96	0.14	95				
CCCCCCC(CCCC)C(=O)OCCN(CCCN(C)CCCN(CCOC(=O)C(CCCC)CCCCCC)CCOC(=O)C(CCCC)CCCCCC)CCOC(=O)C(CCCC)CCCCCC (centres unmarked) [Compound 2]	relatively high encapsulation efficiency	relatively small particle size	86	0.20	84	few mRNA was expressed in liver	mainly expressed in spleen		
CCCCCCCCC(CCCCCC)C(=O)OCCCCCCN(CCCCCCOC(=O)C(CCCCCC)CCCCCCCC)CCCN(C)CCCN(CCCCCCOC(=O)C(CCCCCC)CCCCCCCC)CCCCCCOC(=O)C(CCCCCC)CCCCCCCC (centres unmarked) [Compound 17]	relatively high encapsulation efficiency		96	0.19	184				
CCCCCCC(CCCC)C(=O)OCCCCCCN(CCCCCCOC(=O)C(CCCC)CCCCCC)CCCN(C)CCCN(CCCCCCOC(=O)C(CCCC)CCCCCC)CCCCCCOC(=O)C(CCCC)CCCCCC (centres unmarked) [Compound 27]		relatively small particle size	57	0.21	90	few mRNA was expressed in liver	mainly expressed in spleen	3.39*10^5	
CCCCCCC(CCCC)C(=O)OCCCCOC(=O)CCN(CCCN(C)CCCN(CCC(=O)OCCCCOC(=O)C(CCCC)CCCCCC)CCC(=O)OCCCCOC(=O)C(CCCC)CCCCCC)CCC(=O)OCCCCOC(=O)C(CCCC)CCCCCC (centres unmarked) [Compound 33]	relatively high encapsulation efficiency	relatively small particle size	96	0.11	86	mainly expressed in liver	some mRNA was expressed in spleen	1.59*10^7	46.9
